Laboratory results: article PMC11477717, “Synthesis of Carborane–Thiazole Conjugates as Tyrosinase and 11β-Hydroxysteroid Dehydrogenase Inhibitors: Antiproliferative Activity and Molecular Docking Studies” (Molecules, 2024)
Read-outs that look alike come from different tables or passages of the source.

Columns and labels:
[1] = system: A172 (human brain glioblastoma); assay: MTT antiproliferative assay, A172; type: cell-based; conditions: for IC50: MTT, 72 h, A172 cells, read-out: IC50 ± SD A172; for SI HUVEC/A172: selectivity index = IC50 normal cell line / IC50 cancer cell line
Experimental: (§1) All cell lines were obtained from ATCC, and all chemicals were purchased from Sigma-Aldrich, St. Louis, MO, USA. […] All media were supplemented with antibiotic and antimycotic solutions, according to the manufacturers’ instructions. MTT cytotoxicity assessments were performed as described previously. […] The cells counted using an automated cell counter (Countess® II FL, Invitrogen by Thermo Fisher Scientific Inc., Waltham, MA, USA) were plated in 96-well plates (Nunc Edge 2F, Thermo Fisher Scientific Inc.) at a density of 0.1 × 10^4 per well. After an additional 72 h, cells underwent an MTT cytotoxicity assay (see below). The IC50 values were calculated using ED50plus v 1.0 freeware software (Instituto Nacional de Enfermedades Respiratorias, Mexico City, Mexico). Each cell line was tested in three independent replicates.
(§2) After the incubation time was complete, the medium was removed and crystals of formazan were solubilized in pure isopropanol. The absorbance readout was conducted immediately using a plate reader, Multiskan Spectrum, at 570 nm (Thermo Fisher Scientific Inc., Waltham, MA, USA). The background optical density was measured in the wells filled with the culture medium, without any cells.

B16F10 (murine melanoma) = assay: MTT antiproliferative assay, B16F10; type: cell-based; conditions: for IC50: MTT, 72 h, B16F10 cells, read-out: IC50 ± SD B16F10; for SI HUVEC/ B16F10: selectivity index = IC50 normal cell line / IC50 cancer cell line
Experimental: as §1, §2

[2] = system: MDA-MB-231 (human breast adenocarcinoma); assay: MTT antiproliferative assay, MDA-MB-231; type: cell-based; conditions: for IC50: MTT, 72 h, MDA-MB-231 cells, read-out: IC50 ± SD MDA-MB-231; for SI HUVEC/ MDA-MB-231: selectivity index = IC50 normal cell line / IC50 cancer cell line
Experimental: as §1, §2

mushroom tyrosinase [3] = target: T1, mushroom tyrosinase (Agaricus bisporus, UniProt C7FF04); assay: Mushroom tyrosinase inhibition assay (L-DOPA, dopachrome 475 nm); type: biochemical
T1 construct: purchased Sigma-Aldrich
T1 sequence (C7FF04 1-392 limits assumed): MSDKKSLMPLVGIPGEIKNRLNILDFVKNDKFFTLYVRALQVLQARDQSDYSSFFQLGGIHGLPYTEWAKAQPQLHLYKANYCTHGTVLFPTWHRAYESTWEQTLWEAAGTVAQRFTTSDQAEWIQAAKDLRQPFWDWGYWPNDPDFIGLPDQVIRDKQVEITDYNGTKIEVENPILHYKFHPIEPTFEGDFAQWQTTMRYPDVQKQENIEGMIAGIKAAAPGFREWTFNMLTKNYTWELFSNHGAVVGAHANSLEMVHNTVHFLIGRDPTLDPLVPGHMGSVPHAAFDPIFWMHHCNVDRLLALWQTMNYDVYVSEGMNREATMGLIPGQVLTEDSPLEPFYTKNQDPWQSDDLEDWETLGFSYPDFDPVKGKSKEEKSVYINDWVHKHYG
Experimental: The mushroom tyrosinase (Sigma-Aldrich) inhibition was performed following previously reported methods. […] The inhibitor solutions were prepared in DMSO with an initial concentration of 1 mM. Different aliquots were added to the solution containing the buffer, L-DOPA, and EDTA, with the enzyme being added last. […] Ascorbic acid was used as a reference inhibitor with an initial concentration of 1 mM. The IC50 values were calculated from the equation generated via exponential fit of the experimental data.

mushroom tyrosinase [4] = target: T1, mushroom tyrosinase; assay: Kinetic analysis of the inhibition of tyrosinase (Lineweaver-Burk); type: biochemical; conditions: compound at 0.05 mM; for Mechanism of Inhibition: Lineweaver-Burk plots; for Vmax: L-DOPA 100-250 µM
Experimental: A series of experiments were performed to determine the inhibition kinetics of compounds by following the already reported method. The inhibitor concentrations for compounds were 50 and 100 µM. The substrate L-DOPA concentration was between 100 and 250 µM in all kinetic studies. Maximal initial velocity was determined from the initial linear portion of absorbance up to ten minutes after the addition of the enzyme. The inhibition type of the enzyme, Michaelis constant (KM), and maximal velocity (Vmax) were determined by Lineweaver–Burk plots of the inverse of velocities (1/V) versus the inverse of substrate concentration 1/[L-DOPA] mM^−1.

11β-HSD2 = target: T2, 11β-HSD2 (Homo sapiens, UniProt P80365); assay: Inhibition of 11β-HSD2 assay (cortisol to cortisone, microsomes, cortisol ELISA); type: biochemical; conditions: inhibitor 10 µM, 150 min, 37 °C
T2 construct: Human kidney microsomes, mixed gender, 0.5 mL, 10 mg/mL, Lot No. 1710160, were obtained from XenoTech; tissue XenoTech Lot No. 1710160; host or cells: human kidney microsomes
T2 sequence (P80365 1-405): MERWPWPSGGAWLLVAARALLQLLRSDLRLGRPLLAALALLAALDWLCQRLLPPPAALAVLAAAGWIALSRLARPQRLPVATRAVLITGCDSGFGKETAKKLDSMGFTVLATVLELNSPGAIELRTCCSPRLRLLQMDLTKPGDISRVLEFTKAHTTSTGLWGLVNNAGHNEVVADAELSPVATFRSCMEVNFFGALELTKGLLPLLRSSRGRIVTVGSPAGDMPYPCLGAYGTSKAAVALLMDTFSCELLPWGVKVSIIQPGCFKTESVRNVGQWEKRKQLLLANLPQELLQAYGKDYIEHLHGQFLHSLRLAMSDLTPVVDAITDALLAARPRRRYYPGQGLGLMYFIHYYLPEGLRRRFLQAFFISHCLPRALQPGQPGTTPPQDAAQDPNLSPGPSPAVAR
Experimental: The Enzyme-Linked Immunosorbent Assay (ELISA) Kit for 11-Beta-Hydroxysteroid Dehydrogenase Type 1, Lot No. L160706125, was obtained from Cloud-Clone Corp. PBS, Lot No. H161008, was obtained from Pan Biotech. […] The Enzyme-Linked Immunosorbent Assay (ELISA) Kit for 11-Beta-Hydroxysteroid Dehydrogenase Type 2, Lot No. L191113457, was obtained from Cloud-Clone Corp.
The oxidation reaction of cortisol to cortisone was carried out on 96-well microtiter plates in the presence of the enzyme 11β-HSD2 in a total volume of 100 µL. To this end, 60 µL of phosphate buffer (pH 7.4), 10 µL of a microsomes(0.12 µg/mL […]) solution in PBS (final quantity 2.5 µg), 20 µL of substrate mixture cortisol/NAD (final concentration 200 nM/2 mM), and 10 µL of the appropriate inhibitor solution (solvent DMSO/water 1/99, final concentration 10 µM) were placed in each well. The microplates were incubated on an orbital shaker for 150 min at 37 °C. […] The quantity of unreacted cortisol was determined using a cortisol ELISA kit DiaMetra.

11β-HSD1 = target: T3, 11β-HSD1 (Homo sapiens, UniProt P28845); assay: Inhibition of 11β-HSD1 assay (cortisone to cortisol, microsomes, cortisol ELISA); type: biochemical
T3 construct: tissue XenoTech Lot No. 1410013; host or cells: pooled human liver microsomes
T3 sequence (P28845 whole entry): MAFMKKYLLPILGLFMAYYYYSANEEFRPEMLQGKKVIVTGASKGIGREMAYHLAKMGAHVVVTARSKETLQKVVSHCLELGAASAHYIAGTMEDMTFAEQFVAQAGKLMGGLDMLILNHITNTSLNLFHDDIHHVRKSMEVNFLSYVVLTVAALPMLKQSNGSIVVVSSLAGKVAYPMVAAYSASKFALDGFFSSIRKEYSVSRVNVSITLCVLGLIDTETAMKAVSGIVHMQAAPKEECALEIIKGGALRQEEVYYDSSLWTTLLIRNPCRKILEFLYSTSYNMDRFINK
Experimental: L160706125, was obtained from Cloud-Clone Corp. PBS, Lot No. H161008, was obtained from Pan Biotech. […] L191113457, was obtained from Cloud-Clone Corp. […] The microplates were incubated on an orbital shaker for 150 min at 37 °C. […] The quantity of cortisol formed from cortisone was determined using a cortisol ELISA kit, […].

[5] = system: HUVEC (human umbilical vein endothelial cells); assay: MTT antiproliferative assay, HUVEC healthy control; type: cell-based; conditions: 72 h, HUVEC normal cells, read-out: IC50 ± SD HUVEC
Experimental: All cell lines were obtained from ATCC, and all chemicals were purchased from Sigma-Aldrich, St. Louis, MO, USA. Briefly, cells were cultivated in a controlled atmosphere using DMEM medium with fetal bovine serum (FBS) at a final concentration of 10% (A-172), an L15 medium with 15% FBS, cultivated without CO2 (MDA-MB-231), F12K with a heparin final concentration of 0.1 mg/mL, endothelial cell growth supplement with a final concentration of 0.03 mg/mL (HUVEC), and RPMI with 5% FBS. All media were supplemented with antibiotic and antimycotic solutions, according to the manufacturers’ instructions. MTT cytotoxicity assessments were performed as described previously. Briefly, cell lines A172, B16F10, MDA-MB-231, and HUVEC were seeded 24 h prior to the addition of the tested compounds. The cells counted using an automated cell counter (Countess® II FL, Invitrogen by Thermo Fisher Scientific Inc., Waltham, MA, USA) were plated in 96-well plates (Nunc Edge 2F, Thermo Fisher Scientific Inc.) at a density of 0.1 × 10^4 per well. After an additional 72 h, cells underwent an MTT cytotoxicity assay (see below). The IC50 values were calculated using ED50plus v 1.0 freeware software (Instituto Nacional de Enfermedades Respiratorias, Mexico City, Mexico). Each cell line was tested in three independent replicates.
as §2, with “Twenty microliters of an MTT solution (MTT: 3-(4,5-dimethylthiazol-2-yl)-2,5-diphenyl tetrazolium bromide, stock solution: 5 mg/mL) was added to each cell line for 2 h (A172, B16F10, MDA-MB-231, and HUVEC). After” for “After”

[6] = L-DOPA 0.17 mM, pH 6.8, room temperature, read-out: IC50 ± SD mushroom tyrosinase
[7] = rounded values in SAR summary, unit mM, read-out: IC50 tyrosinase inhibition
[8] = 5 inhibitor concentrations, three independent determinations, read-out: IC50 ± SD 11β-HSD1
[9] = inhibitor 10 µM, 150 min, 37 °C
[10] = values in SAR summary, unit inferred, read-out: IC50 11β-HSD1 (unit inferred)

Molecule	IC50 [1]	SI HUVEC/A172 [1]	IC50 (B16F10 (murine melanoma))	SI HUVEC/ B16F10 (B16F10 (murine melanoma))	IC50 [2]	SI HUVEC/ MDA-MB-231 [2]	IC50 (mushroom tyrosinase [3]; [6])	IC50 (mushroom tyrosinase [3]; [7])	Mechanism of Inhibition (mushroom tyrosinase [4])	Vmax (mushroom tyrosinase [4])	% of 11β-HSD2 Inhibition 10 μM (11β-HSD2)	IC50 (11β-HSD1; [8])	% of 11β-HSD1 Inhibition 10 μM (11β-HSD1; [9])	IC50 (11β-HSD1; [10])	IC50 [5]	inhibition at 10 µM (11β-HSD1; [9])	IC50 ([1]; Homo sapiens, A 172)	IC50 (B16F10 (murine melanoma); Mus musculus, B16-F10)	IC50 ([2]; Homo sapiens)	IC50 ([5]; Homo sapiens)
2-(2-(1,2-Dicarba-closo-Dodecaboranylmethylene)Hydrazinyl)-4-(3,4-Dichlorophenyl)Thiazole [4e]	6.44 ± 0.6 µM	1.22	5.58 ± 0.35 µM	1.41	6.99 ± 2.27 µM	1.12	0.142 ± 0.013 mM	0.142 mM	Activator	0.1575 mM/min	19.34%	7.9 ± 1.4 µM	62.17%	7.9 to 8.1 µM	7.86 ± 0.61 µM	–	–	–	–	–
2-(2-(1,2-Dicarba-closo-Dodecaboranylmethylene)Hydrazinyl)-4-(3,4,5-Trimethoxyphenyl)Thiazole [4i]	> 10 µM	–	5.88 µM	>1.70	> 10 µM	–	0.18 ± 0.00783 mM	–	Mixed	0.5474 mM/min	–	–	–	–	> 10 µM	–	–	–	–	–
O=C1O[C@H]([C@@H](O)CO)C(O)=C1O [Ascorbic acid, reference compound]	–	–	–	–	–	–	0.387 ± 0.012 mM	–	–	–	–	–	–	–	–	–	–	–	–	–
2-(2-(1,2-Dicarba-closo-Dodecaboranylmethylene)Hydrazinyl)-4-(4-Fluorphenyl)Thiazole [4c]	7.1 ± 1.9 µM	1.06	5.57 ± 0.39 µM	1.35	6.02 ± 0.08 µM	1.25	0.143 ± 0.00938 mM	–	Activator	0.0810 mM/min	21.70%	8.1 ± 2 µM	55.74%	7.9 to 8.1 µM	7.51 ± 0.64 µM	–	–	–	–	–
CC1(C)[C@@H](OC(=O)CCC(=O)O)CC[C@]2(C)[C@H]3C(=O)C=C4[C@@H]5C[C@@](C)(C(=O)O)CC[C@]5(C)CC[C@@]4(C)[C@]3(C)CC[C@@H]12 [Carbenoxolone, carbenoxolone, reference compound]	–	–	–	–	–	–	–	–	–	–	–	–	–	–	–	88.9%	–	–	–	–
2-(2-(1,2-Dicarba-closo-Dodecaboranylmethylene)Hydrazinyl)-4-(4-Methoxyphenyl)Thiazole [4f]	> 10 µM	–	5.81 ± 0.82 µM	>1.72	7.32 ± 1.26 µM	>1.37	0.0494 ± 0.00801 mM	–	tyrosinase activator	0.1472 mM/min	29.25%	9.35 ± 1.85 µM	55.54%	–	> 10 µM	–	–	–	–	–
4-(2-(2-(1,2-Dicarba-closo-Dodecaboranylmethylene)Hydrazinyl)Thiazol-4-yl)Benzonitrile [4h]	7.72 ± 1.25 µM	0.80	5.56 ± 0.3 µM	1.11	6.64 ± 0.81 µM	0.93	–	–	Mixed	0.1258 mM/min	–	–	–	–	6.17 ± 0.35 µM	–	–	–	–	–
O=C(O)CCCc1ccc(N(CCCl)CCCl)cc1 [chlorambucil, reference compound]	–	–	–	1.37	–	–	–	–	–	–	–	–	–	–	–	–	> 10 µM	5.44 ± 0.19 µM	> 10 µM	7.43 ± 0.54 µM
4-(2-(2-(1,2-Dicarba-closo-Dodecaboranylmethylene)Hydrazinyl)Thiazol-4-yl)Benzene-1-Sulfonyl Fluoride [4j]	6.4 ± 0.71 µM	>1.56	5.75 ± 0.46 µM	>1.74	6.43 ± 0.23 µM	>1.56	–	–	Mixed	0.7876 mM/min	–	–	–	–	> 10 µM	–	–	–	–	–
4-(Adamant-1-yl)-2-(2-(1,2-Dicarba-closo-Dodecaboranylmethylene)Hydrazinyl)Thiazole [4k]	> 10 µM	–	> 10 µM	–	> 10 µM	–	0.134 ± 0.00584 mM	0.134 mM	Mixed	0.7863 mM/min	–	–	–	–	5.86 ± 0.34 µM	–	–	–	–	–
